Consider 19 compounds from ChEMBL document CHEMBL1134873, “Synthesis and antiparasitic activity of 1H-benzimidazole derivatives” (Bioorg Med Chem Lett, 2002).

Assay [1] has as its system Trichinella spiralis. Description: Percentage viability reduction of Trichinella spiralis muscle larvae after 3 days of incubation. The class given is functional. Also noted: concentration or dose not given beside the values.
A further assay relates to Entamoeba histolytica. Description: The compound was tested in vitro against the protozoa Entamoeba histolytica, for the inhibition of tubulin polymerization in rat brain. Type of assay: functional.
Another assay concerns Giardia intestinalis. Description: The compound was tested in vitro against the protozoa Giardia lamblia, for the inhibition of tubulin polymerization in rat brain. The class given is functional. The conditions noted are these: Giardia duodenalis.
The test system of assay [2] is Trichinella spiralis. Description: Percentage viability reduction of Trichinella spiralis muscle larvae after 3 days of incubation; No reduction observed. Type of assay: functional, organism-based.

pIC50: −log10 of the molar value.

Take `CCCSc1ccc2[nH]c(NC(=O)OC)nc2c1` [ALBENDAZOLE]: the Viability with Trichinella spiralis [1] was determined as 34%.
As for `CSc1nc2cc(Cl)c(Cl)cc2[nH]1`, the pIC50 in the assay on Entamoeba histolytica is 6.45; with Giardia intestinalis, 6.64. This compound yielded a Viability with Trichinella spiralis [1] of 17%.
In the case of `Nc1nc2cc(Cl)c(Cl)cc2[nH]1`, the figures for the pIC50 in the assay with Entamoeba histolytica and in the assay with Giardia intestinalis were 7.23 and 6.66, respectively. In addition, in the assay on Trichinella spiralis [1], the Viability is on record as 2%.
In the case of `Sc1nc2cc(Cl)ccc2[nH]1`, the negative-log IC50 (pIC50) with Entamoeba histolytica was 8.30; in the assay with Giardia intestinalis it was 7.09. This compound had a Viability in the assay with Trichinella spiralis [1] of 13%.
With `Cc1nc2ccccc2[nH]1`, the negative-log IC50 (pIC50) in the assay on Entamoeba histolytica was 8.15; with Giardia intestinalis, 6.50. In addition, in the assay on Trichinella spiralis [2], the Viability result is “No reduction observed”.
Consider `Cc1nc2cc(Cl)ccc2[nH]1`, for which the results for the pIC50 in the assay with Entamoeba histolytica and with Giardia intestinalis were 7.08 and 6.81, respectively. In the assay with Trichinella spiralis [1], this compound came in with a Viability of 14%.
For `Clc1ccc2[nH]cnc2c1`, in that order: 7.41, 6.55 and 27%.
`Clc1cc2nc[nH]c2cc1Cl`: the pIC50 in the assay on Entamoeba histolytica is 7.02; with Giardia intestinalis, 6.45. The same compound showed a Viability in the assay with Trichinella spiralis [1] of 18%.
`COC(=O)Nc1nc2cc(Cl)ccc2[nH]1`: the pIC50 is 6.46 with Entamoeba histolytica and 7.18 with Giardia intestinalis. The Viability with Trichinella spiralis [1] was 19%.
Take `c1ccc2[nH]cnc2c1` [BENZIMIDAZOLE]: the pIC50 is 7.38 in the assay on Entamoeba histolytica and 8.10 in the assay on Giardia intestinalis. Further, the Viability entry with Trichinella spiralis [2] is “No reduction observed”.
For the compound `Sc1nc2ccccc2[nH]1` [2-MERCAPTOBENZIMIDAZOLE], the pIC50 in the assay with Entamoeba histolytica was 6.88; in the assay with Giardia intestinalis, 7.40. Moreover, in the assay on Trichinella spiralis [1], the Viability amounted to 11%.
On to `COC(=O)Nc1nc2cc(Cl)c(Cl)cc2[nH]1`, for which the pIC50 with Entamoeba histolytica is 7.34; in the assay on Giardia intestinalis, 6.90. For the same compound, the Viability with Trichinella spiralis [1] is recorded as 14%.
In the same order, the values of `Nc1nc2ccccc2[nH]1` are 6.94, 5.72 and 9%.
As for `Cc1nc2cc(Cl)c(Cl)cc2[nH]1`, the figures for the pIC50 with Entamoeba histolytica and in the assay on Giardia intestinalis were 7.60 and 7.19, respectively. The compound further came in with a Viability in the assay on Trichinella spiralis [1] of 8%.
For the compound `COC(=O)Nc1nc2ccccc2[nH]1` [CARBENDAZIM], the results for the pIC50 with Entamoeba histolytica and with Giardia intestinalis were 6.69 and 7.24, respectively. In the assay on Trichinella spiralis [2], the Viability result is “No reduction observed”.
With `CSc1nc2ccccc2[nH]1`, the figures for the pIC50 in the assay on Entamoeba histolytica and with Giardia intestinalis were 6.41 and 7.35, respectively. Further, the Viability entry with Trichinella spiralis [2] is “No reduction observed”.
Take `Sc1nc2cc(Cl)c(Cl)cc2[nH]1`: the negative logarithm of the IC50 (pIC50) in the assay on Entamoeba histolytica is 7.26; in the assay on Giardia intestinalis it was 7.11. The compound further yielded a Viability in the assay on Trichinella spiralis [1] of 23%.
`CSc1nc2cc(Cl)ccc2[nH]1`: the pIC50 with Entamoeba histolytica is 6.72; in the assay on Giardia intestinalis it was 8.30. This compound also had a Viability in the assay on Trichinella spiralis [1] of 15%.
For the compound `Nc1nc2ccc(Cl)cc2[nH]1`, the pIC50 in the assay with Entamoeba histolytica was 6.90; with Giardia intestinalis, 7.52. The Viability with Trichinella spiralis [1] stood at 17%.

One may read the pIC50 as the negative decadic logarithm of the IC50, by convention in mol/L.
